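Interpolation was linear, between the two tested concentrations surrounding the appropriate level; five concentrations were tested over 48 hours in 96-well plates. GI50 = concentration required for 50% inhibition of growth. TGI marks complete inhibition of growth.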

The subject of one test is A498 renal. Put plainly: growth of human tumour cells (NCI), 48 h.
Take `Cc1ccc(CS/C(=C\c2ccc([N+](=O)[O-])cc2)C(=O)c2ccc(F)cc2)cc1`: the GI50 was 15.6 µM and the TGI worked out at 36 µM.

On to `CC[CH2][Pb]([CH2]CC)([CH2]CC)[O]C(=O)C(F)(F)F`, for which the GI50 was 0.0579 µM and the TGI was found to be 0.245 µM.

For `CCOC(=O)CCc1cc(=O)oc2cc(O)cc(O)c12`, the TGI was more than 100 µM.

Turning to `CNC(=O)OCc1c(COC(=O)NC)c(-c2ccc(Cl)c(Cl)c2)n2c1SCC2`, the TGI turned out to be 2.07 µM.

`COc1cc(OC)cc(-c2ccc(-c3ccc(C(=N)N)o3)o2)c1`: the GI50 was 2.89 µM and the TGI was determined as 15.3 µM.

Regarding `C[C@]12CC[C@H](O)CC1=CC[C@@H]1[C@@H]2CC[C@]2(C)C(c3cccnc3)=CC[C@@H]12`, the GI50 was more than 27.8 µM and the TGI is more than 100 µM.

As for `Cc1ccc2c(c1)C(=O)/C(=C/c1ncc([N+](=O)[O-])n1C)O2`, the GI50 is 1.99 µM and the TGI amounted to 6.63 µM.

The compound `CC1OC(n2cc(F)c(=O)[nH]c2=O)CCC1O` (stereo not drawn) had a TGI of more than 100 µM.

With `O=C(NCCOCCOCCNc1cccc2c1C(=O)N(C1CCCNC1=O)C2=O)c1cc2c(o1)C(=O)c1ccccc1C2=O` (stereo not drawn), the GI50 is 1.77 µM and the TGI came to 3.21 µM.

As to `O=C(CN1CCOCC1)Nc1ccc(Cn2nnc3c2C(=O)c2nnn(Cc4ccc(NC(=O)CN5CCOCC5)cc4)c2C3=O)cc1`, the GI50 was 1.97 µM and the TGI worked out at 4.39 µM.

As to `O=C(O)Cn1ccc(=O)c2ccc([N+](=O)[O-])cc21`, the TGI was more than 100 µM.

As for `O=C(c1ccco1)c1nc2ccc(C(F)(F)F)cc2[n+]([O-])c1C(F)(F)F`, the GI50 was 33.7 µM and the TGI is more than 100 µM.

On to `CCCCC/C(C=C(C#N)C#N)=C/c1ccccc1`, for which the GI50 was 9.72 µM and the TGI came out at 23.2 µM.

`CC1CCC2(C(=O)O)CCC3(C)C(=CCC4C5(C)CC(O)C(O)C(C)(CO)C5C(O)CC43C)C2C1C` (stereo not drawn) displayed a TGI of 48 µM.

With `Cc1ccc(S(=O)(=O)N(CCOc2ccc(/C(N)=N/Cl)cc2)CCOc2ccc(/C(N)=N\Cl)cc2)cc1`, the GI50 was 52.3 µM and the TGI is more than 100 µM.

On to `COc1ccc(C2=NN(C(=O)c3cc(OC)c(OC)c(OC)c3)C(c3ccc(C#N)cc3)C2)cc1OC` (stereo not drawn), for which the GI50 is 0.374 µM and the TGI turned out to be 4.34 µM.

In the next test the test system is BT-549 breast. The experiment in a line: growth of human tumour cells (NCI), 48 h.
Consider `Cc1ccc(CS/C(=C\c2ccc([N+](=O)[O-])cc2)C(=O)c2ccc(F)cc2)cc1`, for which the GI50 is 1.92 µM and the TGI amounted to 4.38 µM.

With `CC[CH2][Pb]([CH2]CC)([CH2]CC)[O]C(=O)C(F)(F)F`, the GI50 is 0.222 µM and the TGI turned out to be 0.707 µM.

Compound `CCOC(=O)CCc1cc(=O)oc2cc(O)cc(O)c12` returned a TGI of more than 100 µM.

Consider `CNC(=O)OCc1c(COC(=O)NC)c(-c2ccc(Cl)c(Cl)c2)n2c1SCC2`, for which the GI50 is 6.23 µM and the TGI is 22.4 µM.

For `COc1cc(OC)cc(-c2ccc(-c3ccc(C(=N)N)o3)o2)c1`, the GI50 was 6.91 µM and the TGI was 20.1 µM.

For `C[C@]12CC[C@H](O)CC1=CC[C@@H]1[C@@H]2CC[C@]2(C)C(c3cccnc3)=CC[C@@H]12`, the GI50 is 21.7 µM and the TGI is more than 100 µM.

For `Cc1ccc2c(c1)C(=O)/C(=C/c1ncc([N+](=O)[O-])n1C)O2`, the GI50 is 1.95 µM and the TGI worked out at 5.48 µM.

In turn, `CC1OC(n2cc(F)c(=O)[nH]c2=O)CCC1O` (stereo not drawn) had a TGI of more than 100 µM.

In the case of `O=C(NCCOCCOCCNc1cccc2c1C(=O)N(C1CCCNC1=O)C2=O)c1cc2c(o1)C(=O)c1ccccc1C2=O` (stereo not drawn), the GI50 is 1.59 µM and the TGI worked out at 2.98 µM.

As to `O=C(CN1CCOCC1)Nc1ccc(Cn2nnc3c2C(=O)c2nnn(Cc4ccc(NC(=O)CN5CCOCC5)cc4)c2C3=O)cc1`, the GI50 is 1.46 µM and the TGI was 2.83 µM.

For the compound `O=C(O)Cn1ccc(=O)c2ccc([N+](=O)[O-])cc21`, the TGI is more than 100 µM.

Regarding `O=C(c1ccco1)c1nc2ccc(C(F)(F)F)cc2[n+]([O-])c1C(F)(F)F`, the GI50 is 39.4 µM and the TGI was more than 100 µM.

For the compound `CCCCC/C(C=C(C#N)C#N)=C/c1ccccc1`, the GI50 was 2.52 µM and the TGI stood at 8.75 µM.

`CC1CCC2(C(=O)O)CCC3(C)C(=CCC4C5(C)CC(O)C(O)C(C)(CO)C5C(O)CC43C)C2C1C` (stereo not drawn): the TGI was more than 93.5 µM.

Consider `Cc1ccc(S(=O)(=O)N(CCOc2ccc(/C(N)=N/Cl)cc2)CCOc2ccc(/C(N)=N\Cl)cc2)cc1`, for which the GI50 was 14.1 µM and the TGI came to 36.6 µM.

In the case of `COc1ccc(C2=NN(C(=O)c3cc(OC)c(OC)c(OC)c3)C(c3ccc(C#N)cc3)C2)cc1OC` (stereo not drawn), the GI50 was 2.98 µM and the TGI is more than 33.1 µM.

For a further test, the system named is IGROV1 ovarian. The experiment in a line: growth of human tumour cells (NCI), 48 h.
On to `Cc1ccc(CS/C(=C\c2ccc([N+](=O)[O-])cc2)C(=O)c2ccc(F)cc2)cc1`, for which the GI50 is 4.49 µM and the TGI worked out at 31.3 µM.

As for `CC[CH2][Pb]([CH2]CC)([CH2]CC)[O]C(=O)C(F)(F)F`, the GI50 was 0.177 µM and the TGI is 0.627 µM.

`CCOC(=O)CCc1cc(=O)oc2cc(O)cc(O)c12` displayed a TGI of more than 100 µM.

As for `CNC(=O)OCc1c(COC(=O)NC)c(-c2ccc(Cl)c(Cl)c2)n2c1SCC2`, the GI50 is 3.16 µM and the TGI is 26.9 µM.

`COc1cc(OC)cc(-c2ccc(-c3ccc(C(=N)N)o3)o2)c1`: the GI50 is 2.97 µM and the TGI stood at 10.4 µM.

Take `C[C@]12CC[C@H](O)CC1=CC[C@@H]1[C@@H]2CC[C@]2(C)C(c3cccnc3)=CC[C@@H]12`: the GI50 was more than 100 µM and the TGI is more than 100 µM.

In the case of `Cc1ccc2c(c1)C(=O)/C(=C/c1ncc([N+](=O)[O-])n1C)O2`, the GI50 is 1.96 µM and the TGI was more than 23.7 µM.

For the origin of these results see PubChem BioAssay (NCI).
